The source of these data is patent US5849782A, “Methods of inhibiting neurodegenerative diseases” (The General Hospital Corporation, priority 1996, dated 1998).

The conditions of series [1]: 3-NP-induced neurotoxicity in vitro; Riepe et al. 1994; cited from earlier work.
A further series relates to Male Sprague-Dawley rats. Nature of the series: Spontaneous striatal electrophysiological activity. Conditions: MK-801 4 mg/kg after 7-NI; urethane anesthetized rats.
In series [2] the test system is Male Swiss-Webster mice. Nature of the series: 3-nitrotyrosine to tyrosine ratio in mouse striatum after MPTP. The class given is in vivo. Particulars: MPTP 20 mg/kg x4. The protocol:
(§1) Dopamine, 3,4-dihydroxyphenlyacetic acid (DOPAC), homovanillic acid (HVA), p-tyrosine, and 3-nitrotyrosine were quantified by HPLC with 16-electrode electrochemical detection (Beal et al. (1990) supra) and are expressed as ng/mg protein (mean±SEM) (FIG. 1). 3-Nitrotyrosine data are expressed as ratios of 3-nitrotyrosine to p-tyrosine to normalize for differing brain concentrations of tyrosine. The statistical significance of differences was determined via one-way ANOVA followed by Fisher PLSD post hoc test to compare group means. All animal use procedures were in strict accordance with the NIH Guide for the Care and Use of Laboratory Animals and were approved by the local Animal Care Committee.
Role of Peroxynitrite in MPTP. To determine whether peroxynitrite plays a role in MPTP neurotoxicity, we therefore measured the ratio of 3-nitrotyrosine to tyrosine in mouse striatum following administration of MPTP.

Series [3] has as its system Male Swiss-Webster mice. The series can be described thus: MPTP-induced neurotoxicity in mice: striatal dopamine, DOPAC, HVA. The series is classed as in vivo, mouse. Conditions: at 1 week. The protocol:
Methods. Male Swiss-Webster mice (30-35 g:Taconic Farms, Germantown, N.Y., U.S.A.) were treated with either normal saline or MPTP hydrochloride (Research Biochemicals, Natick, Mass., U.S.A.). MPTP was administered in 0.1 ml of water at a dose of 10 mg/kg i.p. at 2-h intervals for six doses or 20 mg/kg i.p. at 2-h intervals for four doses. 7-NI (Cookson Chemical Ltd., Southhampton, U.K.) was dissolved in peanut oil (Sigma, St. Louis, Mo., U.S.A.) at a concentration of 5 mg/ml. Mice received doses of 25 or 50 mg/kg per subcutaneous injection. MPTP-treated animals were treated with peanut oil or 7-NI 12 h before the first, at every MPTP injection, and every 8 h for 48 h after MPTP injections. Eleven to 12 animals were used in each group. Animals were killed at 1 week. The two striata were rapidly dissected and placed in chilled 0.1M perchloric acid. Tissue was subsequently sonicated, and aliquots were taken for protein quantification using a fluorometric assay (Beal et al., 1990) J. Neurochem. 55:1327-1339).
as §1

In another series the target is dopamine transporter (Mus musculus, UniProt Q61327). Conditions: read-out: concentration giving complete inhibition of [3H]dopamine uptake.
dopamine transporter, sequence (Q61327 whole entry): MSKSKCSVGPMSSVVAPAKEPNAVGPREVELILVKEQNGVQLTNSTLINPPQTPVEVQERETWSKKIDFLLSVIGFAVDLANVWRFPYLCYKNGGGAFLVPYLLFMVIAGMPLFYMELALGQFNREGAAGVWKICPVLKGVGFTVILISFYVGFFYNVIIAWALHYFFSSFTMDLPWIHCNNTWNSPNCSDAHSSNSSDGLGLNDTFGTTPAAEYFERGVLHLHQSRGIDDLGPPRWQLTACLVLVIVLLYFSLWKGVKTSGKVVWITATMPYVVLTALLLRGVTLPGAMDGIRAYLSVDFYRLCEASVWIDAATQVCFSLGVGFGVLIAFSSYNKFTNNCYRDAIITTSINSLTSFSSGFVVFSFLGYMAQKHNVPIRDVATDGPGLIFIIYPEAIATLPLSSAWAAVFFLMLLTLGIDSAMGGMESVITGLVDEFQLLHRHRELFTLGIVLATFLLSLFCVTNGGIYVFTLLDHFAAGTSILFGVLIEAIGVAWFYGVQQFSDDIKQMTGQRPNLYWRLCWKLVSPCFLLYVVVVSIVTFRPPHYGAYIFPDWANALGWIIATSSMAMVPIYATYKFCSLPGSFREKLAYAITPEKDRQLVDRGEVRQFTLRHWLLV
[4] abbreviates: MPTP 10 mg/kg x6 at 2-h intervals.

Method for Male Sprague-Dawley rats: Electrophysiology. Four male Sprague-Dawley rats weighing 300 to 400 g were used for electrophysiological studies. Animals were anesthetized with urethane 1.5 g/kg i.p. and placed in a stereotaxic apparatus with their body temperatures maintained at 37° C. by a feedback heating pad. A 0.5×0.5 cm craniotomy was made and recording electrodes were placed in the anterior striatum using stereotaxic coordinates and aural monitoring. Following electrode placement the craniotomy was covered with 4% agar in saline and 30 min were allowed for stabilization before recordings were made. The spontaneous activity of multiple units were recorded extracellularly in the striatum, 3-4 mm anterior to the bregma and 3-4 mm lateral to the midline at a depth of 2.5-4.0 mm using commercially available tungsten microelectrodes (4 M.OMEGA. at 1 kHz, F. Haer, Inc.). […] Data acquisition and analysis of mean firing rate was performed using Discovery.COPYRGT., Experimenters WorkBench.COPYRGT. and Personal Scientific Workstation.COPYRGT. software (DataWave Technologies, Longmont, Colo.). We investigated the electrophysiological effects of the NMDA antagonist MK-801 and the NOS inhibitor 7-NI. […] Finally, spontaneous activity was recorded after the NMDA channel mediated activity was blocked by injection of MK-801 (4 mg/kg).

As for `C[C@]12N[C@H](Cc3ccccc31)c1ccccc12` [MK-801, reference compound], the “effect on ATP depletions” value in series [1] is “had no effect”. The “decrease in mean firing rate in striatum” value with Male Sprague-Dawley rats was “rapid and profound”.
Turning to `CN1CC=C(c2ccccc2)CC1` [MPTP, 1-methyl-4-phenyl1,2,3,6-tetrahydropyridine], the “increase of 3-nitrotyrosine to tyrosine ratio” value in the series on Male Swiss-Webster mice [2] is given as 31%. In the series on Male Swiss-Webster mice [3] (setting [4]), the “depletion in striatal DOPAC levels” value was found to be 27%, the “depletion in striatal HVA levels” value turned out to be 35% and the “depletion in striatal dopamine levels” value came out at 38%. Moreover, the “depletion in striatal dopamine levels” value in the series on Male Swiss-Webster mice [3] (MPTP 20 mg/kg x4) was found to be 64%.
For the compound `OC1(c2ccc(Cl)cc2)c2ccccc2C2=NCCN21` (centres unmarked) [mazindol, reference compound], the IC100 on dopamine transporter is 1 µM.
